This assay concerns the target cathepsin B (Mus musculus, UniProt P10605). Description: fluorogenic protease assay with Z-Phe-Arg-AMC at pH […]. It counts as biochemical.

These results are taken from paper PMC11969537 (ACS Chemical Neuroscience, 2025).

cathepsin B, sequence (P10605 80-333): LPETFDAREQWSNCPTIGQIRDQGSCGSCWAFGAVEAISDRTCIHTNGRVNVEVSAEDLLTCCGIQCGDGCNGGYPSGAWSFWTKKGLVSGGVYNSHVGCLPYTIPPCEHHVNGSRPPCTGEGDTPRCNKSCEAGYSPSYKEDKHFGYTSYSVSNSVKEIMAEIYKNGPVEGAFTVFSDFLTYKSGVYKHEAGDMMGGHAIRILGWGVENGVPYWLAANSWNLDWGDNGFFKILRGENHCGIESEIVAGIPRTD

On to `Cc1cccc(C)c1C(=O)OCC(=O)[C@H](CCCCN)NC(=O)[C@H](CCCNC(=N)N)NC(=O)OCc1ccccc1` [Z-Arg-Lys-AOMK], for which the IC50 is 25 nM.
